Earlier results, collected in patent publication US20050255458A1, “Drug discovery assays based on the biology of chronic disease” (priority 2002, published 2005).
Counter-ions that a name gives are not always drawn. Like-named read-outs stand apart in the source and are kept apart here.

Experiments:
[1] = cited from earlier work
GABP = conditions: cited from earlier work; for GABP DNA binding activity, treated nuclear extracts: 3T3 nuclear extracts, DTT on extracts of DEM-treated cells, GSSG 5 mM; for GABP DNA binding activity (EMSA): 3T3 cells treated 2 h, single and double N-box probes
NOD mice = conditions: mouse, in vivo; cited from earlier work
ERK1 and ERK2 = conditions: cited from earlier work; for MAPK activation: Wen 1996, Rao 1994
[2] = tested on: hair follicles (onset of anagen); conditions: cited from earlier work; for delay in hair regrowth: topical 10 nmol twice weekly, female CD-1 mice
AT1-receptor = biological target: T1, AT1-receptor (Oryctolagus cuniculus, UniProt P34976); conditions: cited from earlier work
T1 construct: from tissue; host or cells: whole animal: Watanabe and New Zealand White rabbits
T1 sequence (P34976 1-359): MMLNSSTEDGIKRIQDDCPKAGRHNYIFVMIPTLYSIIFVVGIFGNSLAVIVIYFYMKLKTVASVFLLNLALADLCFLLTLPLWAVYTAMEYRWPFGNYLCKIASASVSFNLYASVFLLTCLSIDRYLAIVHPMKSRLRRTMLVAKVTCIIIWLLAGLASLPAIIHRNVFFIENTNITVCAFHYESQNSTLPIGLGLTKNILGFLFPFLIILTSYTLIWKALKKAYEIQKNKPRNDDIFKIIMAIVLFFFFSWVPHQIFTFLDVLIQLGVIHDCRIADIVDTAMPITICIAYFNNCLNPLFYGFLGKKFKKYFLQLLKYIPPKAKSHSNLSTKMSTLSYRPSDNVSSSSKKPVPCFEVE

double N-box-TATA-Luc = conditions: cited from earlier work; for decrease in luciferase expression: double N-box-TATA-Luc
apoE(−/−) mice = conditions: 48 hours post injection; cited from earlier work
TF [3] = conditions: cited from earlier work
AR gene = conditions: LNCaP; cited from earlier work
ERK [4] = conditions: cited from earlier work
anagen hair follicles = conditions: Kondo 1990; cited from earlier work
papilla cells = conditions: cited from earlier work
Elk-1 = conditions: Peterziel 1999; cited from earlier work
TF [5] = conditions: dose-dependent; cited from earlier work
ERK [6] = conditions: Jurkat cells; cited from earlier work
[7] = tested on: ocular melanoma cell lines; conditions: cited from earlier work
TF antigen = conditions: starting on day 3, significant on day 28; cited from earlier work
metallothionein (MT) = conditions: OC15 EC, OC15 END cells; cited from earlier work
apo(a) transgenic mice = conditions: 12 weeks; cited from earlier work
fibronectin = conditions: cited from earlier work
20-3 cells = conditions: cited from earlier work
AChRδ and AChRε genes = conditions: cited from earlier work
ERK1/2 = conditions: cited studies, various cells; cited from earlier work
TF [8] = conditions: cited from earlier work; remark: listed apart in the source

## CN(N=O)C(=O)N[C@H]1C(O)O[C@H](CO)[C@@H](O)[C@@H]1O (mixture of isomers) [STZ, streptozotocin]
[1]; 8 days after injection
  increase in ratio of liver weight to body weight: 12%
[1]; 8 days
  hepatocyte mitosis: 300 % of normal
[1]; 30 days
  increase in ratio of liver weight to body weight: 44%
[1]; 90 days
  hepatocyte mitosis: 25 % of normal

## O[C@H](CS)[C@H](O)CS (racemic) [DTT, dithiothreitol]
GABP
  GABP DNA binding activity, treated nuclear extracts: restored GABP binding activity

## O=C(O)CCCC[C@@H]1CCSS1 (racemic) [lipoic acid]
NOD mice
  insulitis and diabetes: decreased insulitis and delayed diabetes

## CCCCC/C=C\C[C@H](O)/C=C/C=C\C/C=C\CCCC(=O)O [12-HETE]
ERK1 and ERK2
  MAPK activation: activation of MAPK

## CCCCC[C@H](O)/C=C/C=C\C/C=C\C/C=C\CCCC(=O)O [15-HETE]
ERK1 and ERK2
  MAPK activation: activation of MAPK

## C[C@]12CC[C@@H]3c4ccc(O)cc4CC[C@H]3[C@@H]1CC[C@@H]2O [17β-estradiol]
[2]
  delay in hair regrowth: indefinite delay
[2]; topical application (Chanda 2000)
  hair growth: decreased hair growth

## O=C(O)CCC/C=C\C/C=C\C/C=C\C/C=C\CCCCCO [20-HETE, 20-hydroxyeicosatetraenoic acid]
ERK1 and ERK2; 0.25 μM, 10 min
  ERK1 and ERK2 activation: activated ERK1 and ERK2

## CCCCc1cc(C(=O)OC)cc(=O)n1Cc1ccc(-c2ccccc2-c2nnn[nH]2)cc1F [Bay 10-6734]
AT1-receptor; 25 mg/kg/day, high-cholesterol diet
  fat-stained area in the aorta: 5.3±1.4%
AT1-receptor; 25 mg/kg/day
  % of macrophage stained area/total plaque cross sectional area: 1±0.2%
AT1-receptor; hyperlipidemic or control animals
  cholesterol levels: did not change the cholesterol levels

## CCOC(=O)/C=C\C(=O)OCC [DEM, diethyl maleate]
Double N-box-TATA-Luc; 6 or 8 h treatment
  luciferase expression from C/EBP-TA-Luc: no effect
Double N-box-TATA-Luc; 6 h
  decrease in luciferase expression: 28%
Double N-box-TATA-Luc; 8 h
  decrease in luciferase expression: 62%
GABP
  GABP DNA binding activity (EMSA): decreased formation

## CCCCCCCCCCCCCCCC(=O)OC[C@H](COP(=O)([O-])OCC[N+](C)(C)C)OC(=O)CCCCCCCCCCCCCCC [DPPC, dipalmitoylphosphatidylcholine]
apoE(−/−) mice
  lipid content of aortic sinus: 18.1±4.7 % of plaque area
  macrophage content of aortic sinus: 9.3±5.8 % of plaque area

## CC(=O)N[C@@H](CS)C(=O)O [NAC, N-Acetylcysteine]
GABP
  GABP DNA binding activity (EMSA): prevented
TF [3]; cells incubated with AGE-alb, 30 mmol/L
  TF activity: concentration dependent inhibition of TF activity
TF [3]
  AGE-alb induced TF mRNA: almost completely suppressed

## C[C@]12CC[C@H]3[C@@H](CCC4=CC(=O)CC[C@@]43C)[C@@H]1CC[C@@H]2O [Testosterone]
AR gene
  Effect on [mRNAAR]: ↓[mRNAAR]
[2]
  delay in hair regrowth: small delay
ERK [4]; SW-13 human adrenal carcinoma
  Effect on [ERK^phos]: ↑[ERK^phos]
Anagen hair follicles
  growth of isolated hair follicles: growth inhibition
Papilla cells; 345 nM, 14 days
  papilla cell proliferation: significantly decreased papilla cell proliferation
Papilla cells; 10^−10 to 10^−7 M, alone or co-cultured (Obana 1997)
  dermal papilla cell proliferation: no effect
Papilla cells; Kiesewetter 1993
  concentrations with no significant effect on papilla cell proliferation: lower than 173 nM

## CCNc1cccnc1N1CCN(CC2(C)CCc3c(C)c(O)c(C)c(C)c3O2)CC1.Cl (stereo not shown) [U78518F]
NOD mice
  insulitis and diabetes: decreased insulitis and delayed diabetes

## CC(O)(CS(=O)(=O)c1ccc(F)cc1)C(=O)Nc1ccc(C#N)c(C(F)(F)F)c1 (stereo not shown) [casodex]
Elk-1
  Elk-1 transcription activity: increase in Elk-1 transcription activity

## CC(C)(O)C(=O)Nc1ccc([N+](=O)[O-])c(C(F)(F)F)c1 [hydroxyflutamide]
Elk-1
  Elk-1 transcription activity: increase in Elk-1 transcription activity

## CN(CC(=O)NO)C(=O)[C@@H]1CCCC[C@@H]1C(=O)O [idrapril]
TF [5]
  TF activity: decreased TF activity

## C[C@H](CCC(=O)O)C[C@H](C)C[C@H](C)C(=O)/C=C(\O)[C@H](C)C[C@H](C)C/C=C/[C@@H](C)[C@@H](O)[C@@H](C)[C@@H](O)C[C@@H]1CC[C@@](C)([C@H]2CC[C@@](C)([C@@H](C)O)O2)O1 [ionomycin]
ERK [6]
  ERK phosphorylation: increased ERK phosphorylation
[7]
  cell attachment to plates coated with fibronectin and other matrix proteins: Significant inhibition

## CCCCc1nc(Cl)c(CO)n1Cc1ccc(-c2ccccc2-c2nn[nH]n2)cc1 [losartan]
TF antigen
  plasma TF antigen levels: negative effect on plasma TF antigen levels

## NC(=O)c1cccnc1 [nicotinamide]
NOD mice
  insulitis and diabetes: decreased insulitis and delayed diabetes

## CC(=O)[O-].[Na+] [sodium acetate]
Metallothionein (MT)
  MT mRNA levels: no effect

## CCC(=O)[O-].[Na+] [sodium propionate]
Metallothionein (MT)
  MT mRNA levels: no effect

## CC/C(=C(\c1ccccc1)c1ccc(OCCN(C)C)cc1)c1ccccc1 [tamoxifen]
apo(a) transgenic mice
  decrease of area of focal apo(a) accumulation: 97%
  decrease of average level of apo(a) in the vessel wall: 69%
  decrease of lesion area: 92%
  decrease of number of lipid lesions: 80%
[7]
  cell attachment to plates coated with fibronectin and other matrix proteins: significant inhibition of cell attachment

## NCCCCCC(=O)O [ε-ACA]
fibronectin
  Lp(a) binding to fibronectin: not effective against Lp(a) binding to fibronectin
  binding of plasminogen to fibronectin: inhibited binding of plasminogen to fibronectin

## EGF: EGF, an ERK agent
Elk-1
  Elk-1 transcription activity: Elk-1 activation
AR gene
  Effect on [mRNAAR]: ↓[mRNAAR]
ERK [4]; DU145
  Effect on [ERK^phos]: ↑[ERK^Phos]
ERK [4]; LNCaP
  Effect on [ERK^phos]: ↑[ERK^phos]
ERK [4]; PC-3
  Effect on [ERK^phos]: ↑[ERK^phos]

## TGFβ1: transforming growth factor-β1
20-3 cells; 5 ng/ml, 72 h, permissive temperature (from 95%)
  labeling index after treatment: 80%
20-3 cells; 72 h non-permissive then 24 h permissive (from 60%)
  labeling index after treatment: below 10%
20-3 cells; non-permissive temperature (from 20%)
  labeling index after treatment: less than 5%

## heregulin
AChRδ and AChRε genes; Western blot, treated vs untreated cells
  increase in GABPα protein level: 2 fold
AChRδ and AChRε genes; chick primary myotubes
  phosphorylation of GABPα and GABPβ: increased phosphorylation
AChRδ and AChRε genes
  transcription of AChRδ and AChRε genes: increased transcription
  transcription of utrophin: stimulated transcription
ERK1/2
  phosphorylation of ERK1/2: phosphorylation of ERK1/2

## oxidized glutathione [GSSG]
GABP
  GABP DNA binding activity, treated nuclear extracts: nearly abolished GABP DNA binding

## vitamin E
NOD mice
  insulitis and diabetes: decreased insulitis and delayed diabetes
TF [8]
  effect on LPS induced TF expression: inhibited the LPS induced expression
TF [8]; probucol 20, vitamin E 50, BHT 50, U74389G 20 μmol/L
  effect on Cu^+2 induced procoagulant activity: inhibited the Cu^+2 induced procoagulant activity
